Laboratory results as given in patent publication US4668688A, “N-substituted isoquinoline derivatives and pharmaceutical compositions containing them” (Richter Gedeon Vegyeszeti Gyar R.T., priority 1983, dated 1987).
Where two headings read alike, the source gives them in different places.

Experiments:
[1] = system: writhing syndrom; assay: Analgesic Activity (mice), acetic acid writhing syndrom; format: in vivo, CFLP (LATI) mice; settings: for ED50: Mus musculus, po, read-out: Analgesic activity, ED50
Protocol: For the pharmacological tests CFLP (LATI) mice of both sexes, weighing 18 to 22 g each and male Han. Wistar (LATI) rats weighing 160 to 180 g each were used. The test materials were administered orally, in 30 mg/kg doses, in the form of a suspension containing 5% of Tween 80, one hour before the tests. 4. Analgesic Activity (mice) One hour after pretreatment, mice were administered 0.4 ml of a 0.6% acetic acid solution intraperitoneally, as a pain stimulus. The frequency of writhing syndrom is registered for 30 minutes.

[2] = system: Tetrabenazine Catalepsy; assay: Inhibition of Tetrabenazine Catalepsy (rats); format: in vivo, male Han. Wistar (LATI) rats; settings: for Antitetrabenazine activity (%): rats, 30 mg/kg intraperitoneally, one hour before tetrabenazine
Protocol: (§1) For the pharmacological tests CFLP (LATI) mice of both sexes, weighing 18 to 22 g each and male Han. Wistar (LATI) rats weighing 160 to 180 g each were used. The test materials were administered orally, in 30 mg/kg doses, in the form of a suspension containing 5% of Tween 80, one hour before the tests.
3. Inhibition of Tetrabenazine Catalepsy
The test was carried out on male rats each weighing 160 to 180 g. The test materials were administered intraperitoneally, in a dose of 30 mg/kg, one hour before tetrabenazine administration.

[3] = system: Hyperthermia; assay: Antipyretic Activity (rats), Brewer's yeast hyperthermia; format: in vivo, male Han. Wistar (LATI) rats; settings: 30 mg/kg orally, 4 h after yeast, % of animals at least one centigrade lower than control
Protocol: as §1
5. Antipyretic Activity (rats)
Hyperthermia is induced in rats with Brewer's yeast suspension (0.5% of Brewer's yeast, 1% of arabic gum in a volume of 0.3 ml, s.c.). The animals are treated with the test materials 4 hours later, and the tracheal temperature of the animals is registered with an ELAB thermometer (typ. TE-3) for 4 hours.

[4] = system: Metrazole Spasm; assay: Metrazole Spasm (mice), antispasm activity; format: in vivo, CFLP (LATI) mice; settings: for Antispasm activity metrazole b: b) tonic extensoric spasm, 30 mg/kg orally
Protocol: as §1

[5] = mice, pentylenetetrazole 125 mg/kg s.c.

Compound	analgesic activity (in words) ([1]; acetic acid writhing, mice)	Analgesic activity (%) ([1]; mice, 30 mg/kg orally, 0.4 ml 0.6% acetic acid i.p., 30 minutes, vs control)	Antitetrabenazine activity (%) [2]	Antipyretic activity (%) [3]	ED50 ([4]; Mus musculus, po; value marked ^x = ED50; b) tonic extensoric spasm, mice, orally, pentylenetetrazole 125 mg/kg s.c.)	ED50 ([1]; value marked ^x = ED50, mice, orally, 0.6% acetic acid i.p. writhing)	analgesic activity relative to reference compound (Na-salicylate) ([1]; acetic acid writhing, mice)	antidepressive effect (in words) ([2]; test not given)	Antispasm activity metrazole b [4, 5]	anticonvulsive effect (in words) ([4]; test not given)	influence on writhing syndrom induced with acetic acid (in words) ([1]; 30 mg/kg dose, mice)	ED50 [1]
CCOc1cc2c(cc1OCC)C(C(CO)CO)N(CC(O)CC)CC2.Cl (stereo not drawn) [Compound B, 1-[bis-(Hydroxymethyl)-methyl]-2-(β-hydroxybutyl)6,7-diethoxy-1,2,3,4-tetrahydroisoquinoline hydrochloride]	somewhat lower analgesic activity than the above 2-methyl-compound	40.0%	20.0%	20.0%	20 mg/kg							
COc1cc2c(cc1OC)C(C(CO)CO)N(C)CC2.Cl (centres unmarked) [Compound A, 1-[bis(hydroxymethyl)-methyl]-2-methyl-6,7-dimethoxy-1,2,3,4-tetrahydroisoquinoline hydrochloride]	valuable analgesic activity		20.0%	20.0%		28 mg/kg	four times more active than the reference compound	remarkable anticonvulsive and antidepressive effects	20.0	remarkable anticonvulsive and antidepressive effects		
O=C(O)c1ccccc1O [Na--salicylate, Na-salicylate, reference compound]				40.0%					20.0		practically not influenced	113 mg/kg
